Target: phosphorylated active hERK2 enzyme (Homo sapiens (Human), UniProt P28482)
Experiment: Active Human ERK2 (hERK2) Activity Assay (IMAP-FP)
Type: biochemical
Conditions: Table 6, 0.5 nM hERK2, 30 μM ATP, 10 point titration, read-out: AERK2 IC50
In short: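 IMAP fluorescence-polarization kinase assay: 0.5 nM activated hERK2 with 900 nM unlabeled plus 80 nM labeled peptide and 30 μM ATP, reacted 60 min. Quenched with IMAP beads in binding buffer with 24 mM NaCl; FP read after 60 min equilibration.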

Chain of phosphorylated active hERK2 enzyme (P28482 whole entry): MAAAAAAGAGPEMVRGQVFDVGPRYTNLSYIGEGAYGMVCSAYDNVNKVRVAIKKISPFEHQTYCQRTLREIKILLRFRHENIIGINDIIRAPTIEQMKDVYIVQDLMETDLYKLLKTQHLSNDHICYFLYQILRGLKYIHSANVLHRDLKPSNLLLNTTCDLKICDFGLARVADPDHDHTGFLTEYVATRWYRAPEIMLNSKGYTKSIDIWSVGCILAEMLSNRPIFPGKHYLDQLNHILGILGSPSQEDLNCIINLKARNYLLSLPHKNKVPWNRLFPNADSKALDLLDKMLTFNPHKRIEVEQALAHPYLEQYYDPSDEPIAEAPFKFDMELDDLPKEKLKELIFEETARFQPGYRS

IC50 [µM] | Compound
0.0021 | CNc1n[nH]c2cc(NC(=O)N[C@@H](c3ccccc3)[C@H]3CCCO3)ncc12 [Example 145, 1-(3-(methylamino)-1H-pyrazolo[4,3-c]pyridin-6-yl)-3-((S)-phenyl((R)-tetrahydrofuran-2-yl)methyl)urea]
0.115 | CNc1n[nH]c2cc(NC(=O)N[C@H](c3ccccc3)[C@@H]3CCCO3)ncc12 [Example 146, 1-(3-(methylamino)-1H-pyrazolo[4,3-c]pyridin-6-yl)-3-((R)-phenyl((S)-tetrahydrofuran-2-yl)methyl)urea]
0.246 | CNc1n[nH]c2cc(NC(=O)N[C@H](c3ccccc3)[C@H]3CCCO3)ncc12 [Example 147, 1-(3-(methylamino)-1H-pyrazolo[4,3-c]pyridin-6-yl)-3-((R)-phenyl((R)-tetrahydrofuran-2-yl)methyl)urea]
0.0008 | CCNc1n[nH]c2cc(NC(=O)N[C@@H](c3ccccc3)[C@@H]3CCCO3)ncc12 [Example 148, 1-[3-(ethylamino)-1H-pyrazolo[4,3-c]pyridin-6-yl]-3-{(S)-phenyl[(2S)-tetrahydrofuran-2-yl]methyl}urea]
0.0006 | CCNc1n[nH]c2cc(NC(=O)N[C@@H](c3ccccc3)[C@H]3CCCO3)ncc12 [Example 149, 1-[3-(ethylamino)-1H-pyrazolo[4,3-c]pyridin-6-yl]-3-{(S)-phenyl[(2R)-tetrahydrofuran-2-yl]methyl}urea]
0.359 | CCNc1n[nH]c2cc(NC(=O)N[C@H](c3ccccc3)[C@H]3CCCO3)ncc12 [Example 150, 1-[3-(ethylamino)-1H-pyrazolo[4,3-c]pyridin-6-yl]-3-{(R)-phenyl[(2R)-tetrahydrofuran-2-yl]methyl}urea]
0.315 | CCNc1n[nH]c2cc(NC(=O)N[C@H](c3ccccc3)[C@@H]3CCCO3)ncc12 [Example 151, 1-[3-(ethylamino)-1H-pyrazolo[4,3-c]pyridin-6-yl]-3-{(R)-phenyl[(2S)-tetrahydrofuran-2-yl]methyl}urea]
0.0009 | Nc1n[nH]c2cc(NC(=O)N[C@@H](c3ccccc3)[C@@H]3CCCO3)ncc12 [Example 152, 1-(3-amino-1H-pyrazolo[4,3-c]pyridin-6-yl)-3-{(S)-phenyl[(2S)-tetrahydrofuran-2-yl]methyl}urea]
0.0007 | Nc1n[nH]c2cc(NC(=O)N[C@@H](c3ccccc3)[C@H]3CCCO3)ncc12 [Example 153, 1-(3-amino-1H-pyrazolo[4,3-c]pyridin-6-yl)-3-{(S)-phenyl[(2R)-tetrahydrofuran-2-yl]methyl}urea]
0.435 | Nc1n[nH]c2cc(NC(=O)N[C@H](c3ccccc3)[C@H]3CCCO3)ncc12 [Example 154, 1-(3-amino-1H-pyrazolo[4,3-c]pyridin-6-yl)-3-{(R)-phenyl[(2R)-tetrahydrofuran-2-yl]methyl}urea]
0.495 | Nc1n[nH]c2cc(NC(=O)N[C@H](c3ccccc3)[C@@H]3CCCO3)ncc12 [Example 155, 1-(3-amino-1H-pyrazolo[4,3-c]pyridin-6-yl)-3-{(R)-phenyl[(2S)-tetrahydrofuran-2-yl]methyl}urea]
0.0007 | COC[C@@H](NC(=O)Nc1cc2[nH]nc(NCC3CCC3)c2cn1)c1ccccc1 [Example 156, 1-{3-[(cyclobutyl-methyl)amino]-1H-pyrazolo[4,3-c]-pyridin-6-yl}-3-[(1S)-2-methoxy-1-phenylethyl]urea]
0.0932 | COC[C@@H](NC(=O)Nc1cc2[nH]nc(N(CC3CCC3)CC3CCC3)c2cn1)c1ccccc1 [Example 157, 1-{3-[bis(cyclobutyl-methyl)amino]-1H-pyrazolo[4,3-c]pyridin-6-yl}-3-[(1S)-2-methoxy-1-phenylethyl]urea]
0.0011 | COC[C@@H](NC(=O)Nc1cc2[nH]nc(NC3CCOC3)c2cn1)c1ccccc1 (stereo partly drawn) [Example 158, 1-[(1S)-2-methoxy-1-phenylethyl]-3-[3-(tetrahydro-furan-3-ylamino)-1H-pyrazolo[4,3-c]pyridin-6-yl]urea]
